# According to patent publication US20210341378A1, “HIGH-CONTENT IMAGING OF MICROFLUIDIC DEVICES” (priority 2019, published 2021):
# What was measured:
# [1] = test system: microfluidic devices seeded with human liver cells; experiment: Albumin secretion (ELISA), human Liver-Chip; format: cell-based
# Source text: Prior to cell seeding, microfluidic devices, in this case S-I Chips (Emulate, Inc. Boston, Mass., USA), were functionalized using Emulate's proprietary protocols and reagents (ER™), including those described herein. After surface functionalization, both channels of the microfluidic device were coated with species-specific extracellular matrices (ECM). For the human bound microfluidic device, a mixture of collagen type I (Corning, Corning, N.Y., USA) and fibronectin, e.g. bovine, (Gibco) was used; for the rat bound microfluidic devices a mixture of collagen type IV, e.g. human placenta, (Sigma-Aldrich, St. Louis, Mo., USA) and fibronectin (Gibco) was used; for the dog bound microfluidic devices a mixture of collagen I (Corning), collagen type IV (Sigma-Aldrich), and fibronectin (Gibco) was used. […] For the dual-cell culture model (hepatocytes and endothelial cells), the LSECs were seeded at a concentration of 2-4 million cells/mL in the lower vascular channel. […] After cell seeding, the upper channel of the microfluidic device was maintained in William's E Medium (WEM) containing Glutamax (Gibco), ITS+ (Corning), dexamethasone (Sigma-Aldrich), ascorbic acid (Sigma-Aldrich), fetal bovine serum (FBS) (Sigma-Aldrich), and Penicillin/Streptomycin (Sigma-Aldrich). The vascular channel of the microfluidic device was maintained with species-specific endothelial media (Emulate, Inc.). Two days after seeding, the microfluidic devices were connected to the Human Emulation System™ (Emulate, Inc.), as described in part herein, and both of the microfluidic device channels were perfused at 30 μL/hr to provide a continuous supply of fresh media for the duration of the experiments. Albumin secretion from the upper channel was quantified using ELISA kits for human, rat, and dog models effluent samples (human and rat: Abcam; dog: Immunology Consultants Laboratory, Inc., Portland, Oreg., USA) and the assays were performed according to the protocol provided by each vendor.
# [2] = test system: microfluidic devices seeded with human liver cells; experiment: APAP metabolite quantification by LC-MS, human Liver-Chip; format: in vitro ADME; conditions: daily 3 mM for 20 days, quadruple-cell human chip
# Source text: After APAP exposure to microfluidic devices seeded with human liver cells, effluent metabolite levels were quantified using LC-MS analysis. […] APAP-Glucuronide (APAP-Glu), the primary metabolite of APAP, was not quantified using a standard curve. Rather, the LC-MS peak area of APAP-Glu was reported corresponding to each sample.
# stellate cells = experiment: Stellate cell activation (alpha-SMA), human Liver-Chip; format: cell-based; conditions: daily 1, 10 and 30 μM for 7 days, quadruple-cell chip
# Description: (§1) Microfluidic devices seeded with liver cells and static sandwich plate cultures were fixed with 4% paraformaldehyde for 15 minutes at room temperature, washed with PBS, and permeabilized (saponin 1% with 10% serum in PBS). Blocking and incubation with the primary antibodies (overnight in PBS containing 1% BSA or PBS containing 10% serum and 1% BSA) was followed by a two-hour incubation with secondary antibodies (Cell Signaling, Danvers, Mass., USA) in the same blocking buffer. Immunostaining was performed with specific primary antibodies (anti-MRP2, anti-stabilin-1, anti-BSEP, anti-α-SMA, anti-CD68; Abcam, Cambridge, Mass., USA) and images were acquired with either an Olympus fluorescence microscope (IX83) or Zeiss confocal microscope (AxiovertZ1 LSM880).
# (§2) The number of CD68- or α-SMA-positive cells in the vascular channel in each group was counted in each field of view ([…]) and quantified.
# The fluorescent channel (588) was first background subtracted and processed using the median filter of Image J. After processing, the signal was thresholded using adaptive thresholding function of Image J (Otsu method) to extract fluorescent regions and to measure the relative intensity of the fluorescent signal. N=4 to 6 FOVs per microfluidic device from each microfluidic device were analyzed. […]
# [3] = test system: microfluidic devices seeded with human liver cells; experiment: Cytokine release (IL-6, MCP-1, IP-10) from vascular channel, human Liver-Chip; format: cell-based
# Description: Cytokines: Release of IL-6, MCP-1, and IP-10 from the vascular channel was quantified using U-PLEX biomarker human assays (Meso Scale Diagnostics, Rockville, Md., USA) and the assays were performed according to the protocol provided by the vendor.
# [4] = test system: microfluidic devices seeded with human liver cells; experiment: Lipid accumulation (Nile red / AdipoRed), human Liver-Chip; format: cell-based; conditions: daily 1, 10 and 30 μM for 7 days, quadruple-cell chip
# Source text: Microfluidic devices seeded with liver cells were stained in the upper channel with 5(6)-Carboxy-2′,7′-dichlorofluorescein diacetate (CDFDA) (ThermoFisher) to visualize bile canaliculi and MRP2 activity, cholyl-lysyl-fluorescein (CLF) (Corning) to visualize bile canaliculi and BSEP activity, Nile red (ThermoFisher) or AdipoRed (Lonza) to visualize lipid droplet accumulation, Tetramethylrhodamine, methyl ester (TMRM) (ThermoFisher) to visualize active mitochondria, and CellROX® (ThermoFisher) to visualize cellular oxidative stress. Each staining solution was prepared in blank medium or compound dosing medium and added to the upper channel, incubated for 15 minutes at 37° C., and washed three times with medium. The stained microfluidic devices were imaged using a specific filter, and were de-blurred with Olympus cellSens software. Using ImageJ-Fiji, the fluorescent channel images were histogram adjusted to remove background, followed by fluorescence quantification using the Integrated Density calculation function.
# The stained microfluidic devices were imaged using the TRITC filter, and were de-blurred with Olympus cellSens software. Using ImageJ-Fiji, the fluorescent channel images were histogram adjusted to remove background, followed by fluorescence quantification using the Integrated Density calculation function. N=5 FOVs per microfluidic device were analyzed for conditions: vehicle (0.1% DMSO), FIAU dosing groups, and MTX dosing groups.
# [5] = some patient populations; cited from earlier work
# [6] = test system: microfluidic devices seeded with liver cells (hepatocytes and LSECs); experiment: High-content confocal imaging of Liver-Chips treated with staurosporine; format: cell-based, human; conditions: 10 μM, six hours of exposure
# Description: Microfluidic devices were obtained from Emulate Inc. (USA) and are illustrated in FIG. 1A. The channels of the microfluidic devices were coated with a proprietary mixture of extracellular matrix and were incubated overnight at 37° C. Primary human cryopreserved hepatocytes sourced from ThermoFisher, as one example, were seeded in the top channel at a density of 3.5×10^6 cells/mL, and were left to form an attached monolayer at 37° C. in a humidified incubator with a 95%/5% ratio of air to CO2.
# Twenty-four hours after seeding, the hepatocyte monolayer was overlaid with Matrigel Matrix sourced from Corning, USA. Primary human cryopreserved liver sinusoidal endothelial cells, also known as LSECs, were seeded on the bottom channel of the microfluidic device at a density of 2 to 4×10^6 cells/mL in endothelial medium, also known as CSC medium or Base LSEC Culture Medium; CSC basal Medium plus Culture-Boost (2%), Cell Systems, and Pen/Strep (1%), Sigma. In some embodiments, endothelial cells are cultured in Complete LSEC Culture Medium, Base LSEC Culture Medium plus 10% FBS. […]
# The effects of agents, such as staurosporine on cell phenotype was evaluated. […] The protocol was chosen as it was analogous to how the compound has been evaluated in vivo. […]
# dogs = experiment: Repeat-dose toxicity studies in dogs; format: in vivo; conditions: dog study of the cFMS/FLT3 inhibitor
# Description: JNJ-1, prepared in purified water, was administered once daily for 14 days to 5 male and 5 female rats at doses of 5, 25, and 125 mg/kg. In a separate study, JNJ-1, also in purified water, was administered once daily for 4 weeks to 5 male and 5 female dogs at 0 or 40 mg/kg/day, and to 3 males and 3 female dogs at 2 or 10 mg/kg/day. Mortality, clinical observations, body weight, food consumption, clinical pathology, gross necropsy and microscopic examination of selected tissues, and toxicokinetics were evaluated. […] Histology slides (hematoxylin and eosin staining and Mason's Trichrome staining) of the liver tissues were prepared and evaluated microscopically. The quantification of JNJ-1 was conducted using a qualified liquid chromatographic-triple quadrupole mass spectrometric (LC-MS/MS) procedure.
# JNJ-3 (in 20% hydroxypropyl-β-cyclodextrin) was administered once daily for 14 days to 3 male beagle dogs per group at doses of 15 and 65 mg/kg. Mortality, clinical observations, body weight, food consumption, clinical pathology, gross necropsy and microscopic examination of selected tissues, and toxicokinetics were evaluated. […] Histology slides (hematoxylin and eosin staining and Mason's Trichrome staining) of the liver tissues were prepared and evaluated microscopically. […]
# rats = experiment: Repeat-dose toxicity studies in rats; format: in vivo; conditions: rat study of the cFMS/FLT3 inhibitor
# Description: JNJ-1, prepared in purified water, was administered once daily for 14 days to 5 male and 5 female rats at doses of 5, 25, and 125 mg/kg. In a separate study, JNJ-1, also in purified water, was administered once daily for 4 weeks to 5 male and 5 female dogs at 0 or 40 mg/kg/day, and to 3 males and 3 female dogs at 2 or 10 mg/kg/day. Mortality, clinical observations, body weight, food consumption, clinical pathology, gross necropsy and microscopic examination of selected tissues, and toxicokinetics were evaluated. Rats or dogs were fasted overnight prior to blood collection for measurement of clinical pathology parameters (including AST and ALT) at the end of 14 days (rats) or 4 weeks (dogs) of dosing. Histology slides (hematoxylin and eosin staining and Mason's Trichrome staining) of the liver tissues were prepared and evaluated microscopically. The quantification of JNJ-1 was conducted using a qualified liquid chromatographic-triple quadrupole mass spectrometric (LC-MS/MS) procedure.
# Regarding histology procedures, the liver was sampled. Briefly, 5 serial sections were prepared. One was stained with hematoxylin and eosin (H&E) kit. The 4 others were submitted to histochemical and immunohistochemical stains. Collagen was detected with the Van Gieson kit (Merck, Darmstadt, Germany), and reticulin, with the Reticulum kit (Sigma-Aldrich). […]
# Kupffer cells = experiment: Kupffer cell count (CD68-positive cells), human Liver-Chip; format: cell-based; conditions: human quadruple-cell chip
# Description: as §1, §2
# [7] = test system: microfluidic devices seeded with rat liver cells; experiment: Albumin secretion (ELISA), rat Liver-Chip; format: cell-based; conditions: 168 h; dual-cell rat chips, daily administration 1-100 μM for 7 days; read-out: IC50 of decrease in albumin secretion
# Source text: Prior to cell seeding, microfluidic devices, in this case S-I Chips (Emulate, Inc. Boston, Mass., USA), were functionalized using Emulate's proprietary protocols and reagents (ER™), including those described herein. After surface functionalization, both channels of the microfluidic device were coated with species-specific extracellular matrices (ECM). For the human bound microfluidic device, a mixture of collagen type I (Corning, Corning, N.Y., USA) and fibronectin, e.g. bovine, (Gibco) was used; for the rat bound microfluidic devices a mixture of collagen type IV, e.g. human placenta, (Sigma-Aldrich, St. Louis, Mo., USA) and fibronectin (Gibco) was used; for the dog bound microfluidic devices a mixture of collagen I (Corning), collagen type IV (Sigma-Aldrich), and fibronectin (Gibco) was used. […] For the dual-cell culture model (hepatocytes and endothelial cells), the LSECs were seeded at a concentration of 2-4 million cells/mL in the lower vascular channel. […] Albumin secretion from the upper channel was quantified using ELISA kits for human, rat, and dog models effluent samples (human and rat: Abcam; dog: Immunology Consultants Laboratory, Inc., Portland, Oreg., USA) and the assays were performed according to the protocol provided by each vendor.
# [8] = biological target: T1, bile salt export pump (BSEP) (Homo sapiens, UniProt O95342); experiment: CLF efflux into bile canaliculi (BSEP activity), human Liver-Chip; format: cell-based; conditions: 30 μM, co-treatment with CLF
# T1 construct: Primary rat, dog or human hepatocytes were cultured in the upper parenchymal channel; endogenous in cells; host or cells: primary human hepatocytes co-cultured with LSECs in a microfluidic Liver-Chip
# T1 sequence (O95342 whole entry): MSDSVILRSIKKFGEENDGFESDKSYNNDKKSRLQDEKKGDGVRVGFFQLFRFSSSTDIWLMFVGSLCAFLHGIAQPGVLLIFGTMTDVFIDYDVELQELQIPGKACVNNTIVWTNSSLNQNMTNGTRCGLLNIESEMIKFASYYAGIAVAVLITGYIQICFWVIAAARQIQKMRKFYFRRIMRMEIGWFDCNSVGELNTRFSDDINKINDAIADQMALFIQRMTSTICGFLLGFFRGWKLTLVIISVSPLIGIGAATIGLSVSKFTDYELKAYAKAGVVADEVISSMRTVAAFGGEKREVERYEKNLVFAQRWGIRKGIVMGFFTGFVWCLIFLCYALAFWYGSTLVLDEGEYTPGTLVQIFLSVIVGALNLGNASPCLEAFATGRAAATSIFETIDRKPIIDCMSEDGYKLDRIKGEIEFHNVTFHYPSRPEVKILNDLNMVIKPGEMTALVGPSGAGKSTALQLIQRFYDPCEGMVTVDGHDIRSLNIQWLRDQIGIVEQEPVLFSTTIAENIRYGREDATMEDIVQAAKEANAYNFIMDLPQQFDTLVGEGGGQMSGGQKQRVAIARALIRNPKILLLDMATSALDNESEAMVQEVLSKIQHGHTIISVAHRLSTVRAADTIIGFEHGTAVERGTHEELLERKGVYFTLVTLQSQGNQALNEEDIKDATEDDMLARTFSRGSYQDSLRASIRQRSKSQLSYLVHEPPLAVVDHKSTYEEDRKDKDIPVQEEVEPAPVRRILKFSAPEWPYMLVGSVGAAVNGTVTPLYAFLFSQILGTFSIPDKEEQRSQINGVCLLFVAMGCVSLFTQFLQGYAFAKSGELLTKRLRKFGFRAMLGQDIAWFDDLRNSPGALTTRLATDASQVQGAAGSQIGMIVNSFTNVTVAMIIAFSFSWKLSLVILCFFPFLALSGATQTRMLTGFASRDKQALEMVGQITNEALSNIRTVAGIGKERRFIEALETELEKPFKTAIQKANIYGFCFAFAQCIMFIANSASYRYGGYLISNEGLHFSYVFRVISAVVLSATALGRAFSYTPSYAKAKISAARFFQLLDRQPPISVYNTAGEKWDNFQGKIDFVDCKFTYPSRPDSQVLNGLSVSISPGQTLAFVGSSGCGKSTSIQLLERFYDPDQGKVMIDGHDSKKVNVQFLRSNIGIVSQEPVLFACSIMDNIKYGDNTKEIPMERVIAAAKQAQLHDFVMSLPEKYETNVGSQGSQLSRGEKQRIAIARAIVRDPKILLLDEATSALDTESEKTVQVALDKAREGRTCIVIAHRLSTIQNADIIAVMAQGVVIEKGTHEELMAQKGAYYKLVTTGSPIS
# Description: Both a brightfield and a fluorescence image was taken from each field of view. […] CLF-labeled regions that most likely to corresponded to bile canaliculi were automatically identified based on geometric criteria and retained only if they co-localized with a bile canaliculi signal in channel 1. […] These criteria were determined empirically using a small test set of images and then applied to images for the analysis. […] The data for treated and control samples were quantified by computing the area percentage of CLF-labeled bile canaliculi within each field of view (FOV).
# BSEP = BSEP protein area and gene expression, human Liver-Chip; format: cell-based; conditions: 30 μM
# Description: In one embodiment, gene expression levels were analyzed using 2-step PCR. […] Relative gene expression levels were calculated using ddCt method.
# The fluorescent channel images were first de-blurred with Olympus cellSens software. Using ImageJ, they were then histogram adjusted to remove background, adaptive thresholded to extract fluorescent regions (a plugin developed by Qingzong Tseng using the adaptive threshold method of the OpenCV library), and analyzed using the built-in 3D Object Counter function with an area cutoff value to remove noise.
# [9] = test system: 3D human spheroid hepatic cultures; conditions: fold higher than the human Liver-Chip IC50; cited from earlier work
structure (smiles),measurement,setting,value
"CC(=O)Nc1ccc(O)cc1 [APAP, acetaminophen]",albumin synthesis,"[1]; APAP 7 days, quadruple-cell human chip",decreased
same,APAP glucuronide in parenchymal and vascular channels,[2],significant amounts
"CN(Cc1cnc2nc(N)nc(N)c2n1)c1ccc(C(=O)N[C@@H](CCC(=O)O)C(=O)O)cc1 [MTX, Methotrexate]",expression of α-SMA (stellate cell activation),stellate cells,increased expression
same,IP-10,"[3]; MTX treatment, 1 day, vascular channel",increases
same,cytokines/chemokines including IP-10,[3]; treated Liver-Chips (discussion),release
same,albumin secretion,"[1]; MTX 1, 10 and 30 μM for 7 days, quadruple-cell chip",no abnormalities
same,lipid accumulation detected by Nile red,[4],microscopic evidence of lipid accumulation
same,maximal plasma concentrations at which liver injury occurs in humans,[5],~1 µM
"CN[C@@H]1C[C@H]2O[C@@](C)([C@@H]1OC)n1c3ccccc3c3c4c(c5c6ccccc6n2c5c31)C(=O)NC4 [Staurosporine, staurosporine]",LSECs,[6],complete loss
same,apoptotic marker (CC3),[6],marked increases
CN(C)CC(=O)N1CCC(c2ccc(NC(=O)c3nc(C#N)c[nH]3)c(C3=CCCCC3)c2)CC1 [a JNJ compound],microscopic changes in the liver,dogs,without any correlative microscopic changes
same,transaminases,dogs,Dose-related elevation
same,interleukin 6 (IL-6) in the vascular channel,[3]; human quadruple-cell chip,dose-dependent decrease
same,monocyte chemoattractant protein-1 (MCP-1) in the vascular channel,[3]; human quadruple-cell chip,dose-dependent decrease
same,microscopic changes in the liver,rats,without any correlative microscopic changes
same,transaminases,rats,Dose-related elevation
same,CD68-positive cells (Kupffer cell depletion),Kupffer cells,decreased number
COc1ccccc1Oc1c(NS(=O)(=O)c2ccc(C(C)(C)C)cc2)nc(-c2ncccn2)nc1OCCO [bosentan],IC50,[7],> 100 µM
same,CLF in human hepatocytes,[8],intracellular accumulation
same,BSEP mRNA levels,BSEP,decreases
same,BSEP protein levels,BSEP,decreases
same,IC50 in 3D human spheroid hepatic cultures relative to human chip,[9],more than 10 fold
